Results: publication PMC7073916, “Potential Tools for Eradicating HIV Reservoirs in the Brain: Development of Trojan Horse Prodrugs for the Inhibition of P-Glycoprotein with Anti-HIV-1 Activity” (Journal of Medicinal Chemistry, 2019)
Read-outs that look alike come from different tables or passages of the source.

Experiments:
P-gp [1] = target: T1, P-gp (Homo sapiens, UniProt P08183); experiment: P-gp substrate accumulation assay (flow cytometry) in 12D7-MDR cells; assay type: cell-based; parameters: host or cells: 12D7-MDR cells (CD4+ T lymphocytes, kept under vincristine); details: for IC50: 12D7-MDR cells, 30 min, 1% DMSO
T1 sequence (P08183 whole entry): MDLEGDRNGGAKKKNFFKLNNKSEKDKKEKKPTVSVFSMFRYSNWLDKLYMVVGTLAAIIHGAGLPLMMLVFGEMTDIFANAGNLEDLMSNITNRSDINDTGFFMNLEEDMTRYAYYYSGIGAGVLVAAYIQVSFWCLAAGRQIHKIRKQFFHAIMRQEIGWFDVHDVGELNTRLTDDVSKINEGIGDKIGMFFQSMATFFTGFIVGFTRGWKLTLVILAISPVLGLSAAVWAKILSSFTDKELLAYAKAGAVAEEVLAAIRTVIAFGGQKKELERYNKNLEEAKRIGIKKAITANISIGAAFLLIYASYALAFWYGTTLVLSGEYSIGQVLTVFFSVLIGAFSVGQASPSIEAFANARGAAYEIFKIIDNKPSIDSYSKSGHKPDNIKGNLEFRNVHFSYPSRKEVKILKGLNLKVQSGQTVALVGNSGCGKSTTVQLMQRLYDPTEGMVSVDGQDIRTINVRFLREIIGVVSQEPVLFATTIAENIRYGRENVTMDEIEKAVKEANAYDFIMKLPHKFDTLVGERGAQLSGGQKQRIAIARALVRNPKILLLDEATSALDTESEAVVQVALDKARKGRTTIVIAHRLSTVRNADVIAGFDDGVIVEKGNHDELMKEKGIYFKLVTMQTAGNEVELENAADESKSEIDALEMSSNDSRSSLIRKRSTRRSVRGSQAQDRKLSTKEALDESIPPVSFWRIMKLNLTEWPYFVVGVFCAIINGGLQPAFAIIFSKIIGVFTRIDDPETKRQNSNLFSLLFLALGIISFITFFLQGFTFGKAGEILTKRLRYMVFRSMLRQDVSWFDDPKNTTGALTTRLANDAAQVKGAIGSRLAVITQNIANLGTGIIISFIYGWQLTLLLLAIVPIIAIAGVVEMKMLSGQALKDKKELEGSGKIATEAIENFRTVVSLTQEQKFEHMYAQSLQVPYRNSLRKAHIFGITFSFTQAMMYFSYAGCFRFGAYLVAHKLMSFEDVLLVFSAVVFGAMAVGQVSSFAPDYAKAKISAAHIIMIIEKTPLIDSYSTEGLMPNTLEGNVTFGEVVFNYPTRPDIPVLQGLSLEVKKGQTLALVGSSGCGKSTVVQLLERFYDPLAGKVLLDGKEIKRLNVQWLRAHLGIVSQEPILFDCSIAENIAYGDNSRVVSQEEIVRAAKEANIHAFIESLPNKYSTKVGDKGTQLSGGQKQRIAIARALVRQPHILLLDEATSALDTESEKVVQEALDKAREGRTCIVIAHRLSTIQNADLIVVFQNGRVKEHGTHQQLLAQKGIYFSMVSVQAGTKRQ
From the text: (§1) One of the goals of the designed TH heterodimers is to inhibit P-gp-mediated efflux. A substrate accumulation assay was used to evaluate the potency of Aba-S2-NFV1 and Aba-S2-DRV8 as P-gp inhibitors using the P-gp substrates calcein-AM and NBD-Aba.[38],[39] Two cell lines were used to monitor the accumulation of these fluorescent P-gp substrates: 12D7-MDR cells which are CD4+ T lymphocytes with overexpression of P-gp,[40] and hCMEC/D3 cells as an in vitro BBB model cell line.[41] hCMEC/D3 cells are an immortalized human brain capillary endothelial cell line that expresses endogenous levels of P-gp.[42],[43] Inhibition of P-gp efflux was measured by monitoring the increase in cellular fluorescence with added heterodimer by flow cytometry.
(§2) The growth of cells was maintained at 37 °C in 5% CO2. hCMEC/D3 cells were cultured according to literature protocols with minor modifications.[41]
(§3) Flow cytometry was used to estimate P-gp inhibition using a substrate accumulation assay as described previously with some minor changes.[38] […] The cells were harvested by centrifugation at 300g at 4 °C for 7 min. The supernatant was carefully removed, and 400 μL of cold, sterile PBS was added to the cell pellet. […] The mean fluorescence value for each concentration corresponded to 10 000 cells. Each sample was run in duplicate, and all the experiments were run in duplicates on two different days. The average fluorescence accumulated in the cells for samples was used to plot the mean fluorescence vs concentration, and the IC50 values were estimated using GraphPad Prism.

in vitro = assay type: cell-based; details: human
Protocol: An MTT assay was used to determine the cell toxicity of Aba-S2-NFV1 and Aba-S2-DRV8 in the 12D7-MDR cell lines after 24 h.[44]
The viability of 12D7-MDR cells in the presence of a TH heterodimer (Aba-S2-NFV1 or Aba-S2-DRV8) was measured using the standard MTT assay.[44] 20 000 12D7-MDR cells were plated in 96-well plate in 100 μL of cell medium. After 12 h, TH heterodimer in medium was added to each well to give a final concentration of 5, 10, and 20 μM (1% DMSO). After 24 h 20 μL of MTT in PBS (5 mg/mL) was added to all the wells and incubated for 2.5 h. The 96-well plates were centrifuged at 300g for 7 min, followed by careful removal of supernatant. 100 μL of DMSO was added to dissolve the formazan. The absorbance of the DMSO solution was read using a plate reader at 590 nm. Cell viability was reported as the ratio of absorbance of cells treated with TH heterodimer relative to cells treated with DMSO.

HIV-1LAI = experiment: HIV-1 cell inhibition assay (p24 ELISA) in infected 12D7 cells; assay type: cell-based; details: HIV-1LAI infected 12D7 cells; 6 days; medium with drug changed after 3 days; Figure 2
Protocol: (§4) To investigate if Aba-S2-NFV1 and Aba-S2-DRV8 are effective against HIV-1 in cells, an in vitro HIV-1 titer assay was performed using the 12D7 cell line. 12D7 cells were infected with HIV-1LAI, and anti-HIV-1 activity was measured by monitoring p24 protein levels as previously described.[45],[46] First the stability of the prodrugs was monitored in PBS and cell culture media using UPLC–MS. […] Therefore, for the cell-based anti-HIV-1 experiments, the medium, with drugs, was changed every 3 days. […] (Figure 2). […] Thus, this difference in chemical connectivity leads to a difference in monomer release that may be responsible for the differences in anti-HIV-1 potency.
12D7 cells were grown in the identical medium for the cell culture medium stability studies. The cells in log-phase were pelleted and resuspended at 1 million cells per mL. 500 TCID50 HIV-1LAI was used to infect cells for 4 h using a known procedure.[45] These infected cells were plated at a density of 75 000 cells per mL in 48-well plates after three washes with the medium. Different concentrations of the compound of interest were added keeping the DMSO concentration at 0.05%. […] On the sixth day, the supernatant was analyzed using ELISA to quantify the amount of HIV-1 p24 (gag) protein generated in each sample.[46] […]

P-gp [2] = target: T1, P-gp; experiment: P-gp substrate accumulation assay (flow cytometry) in hCMEC/D3 cells; assay type: cell-based
From the text: as §1, §2, §3

[3] = Stability of prodrugs in PBS and cell culture media; assay type: physicochemical; details: 37 °C
Protocol: as §4
The cell media stability studies for the TH heterodimers (Aba-S2-NFV1 or Aba-S2-DRV8) were carried out following a previously published protocol with some modifications.[32] Heterodimers (100 μM) were incubated at 37 °C in the cell medium used for 12D7 cells (complete RPMI 1640 medium with 50 units/mL of penicillin and 50 μg/mL streptomycin, 5 mM of L-glutamine, and 10% FBS) with 1% DMSO. Every 24 h ice-cold acetonitrile with 4-methoxybenzyl alcohol (1.0 mM) was added to an aliquot of the reaction mixture (1:1). The resultant solution was vortexed for 1 min, sonicated for 10 min, and centrifuged twice at 10 000g for 10 min each. The supernatant was stored at −80 °C. All samples were analyzed using a C8 analytical column (Phenomenex, USA) on RP-HPLC with eluent consisting of solvent A (water and 0.05% TFA) and solvent B (acetonitrile and 0.05% TFA). A gradient of 15–75% solvent B over 30 min with a flow rate of 1.2 mL/min and UV detection at 254 nm was used. The assays were performed in duplicate.

[4] = Reversion of TH heterodimers into monomers in a reducing environment (DTT or GSH), UPLC-MS; assay type: physicochemical; details: ratio of t1/2 values (DTT)
Protocol: The breakdown of the TH heterodimers with DTT and glutathione (GSH) and the release of monomers were monitored using UPLC–MS at various time points. The reduction of the heterodimers to free thiols occurs rapidly, with full reduction observed within 1 h. Upon appearance of free thiols, the subsequent rearrangement led to the generation of the component monomeric drugs. […] This significant difference in monomer release is likely due to the differences in the chemical connectivity of the monomers. NFV, as described above, is connected to the tether via a phenolic moiety, whereas DRV is linked by a secondary alcohol. The better leaving group ability of the phenol versus the secondary alcohol likely leads to the observed difference in monomer regeneration.
Stability studies with DTT and GSH were adapted from a previously published protocol with some changes.[32] […] When monitoring NFV and DRV release, an aliquot of the reaction mixture was taken at different time points and directly analyzed by UPLC–MS. […] The time points were analyzed using RP-UPLC with a C18 column consisting of solvent A (water and 0.1% formic acid) and solvent B (acetonitrile and 0.1% formic acid), a gradient of 5–95% of solvent B over 10 min, and a flow rate of 0.5 mL/min. […]

P-gp [5] = details: cited from earlier work
[6] = NBD-Aba 5 μM, read-out: IC50, inhibition of P-gp mediated efflux of NBD-Aba
[7] = calcein-AM 0.25 μM, read-out: IC50, inhibition of P-gp mediated efflux of calcein-AM
[8] = NBD-Aba 5 μM, 30 min, 1% DMSO, read-out: IC50, inhibition of P-gp mediated efflux of NBD-Aba
[9] = calcein-AM 0.25 μM, 30 min, 1% DMSO, read-out: IC50, inhibition of P-gp mediated efflux of calcein-AM

SMILES	IC50 (P-gp [1]; [6])	IC50 (P-gp [1]; [7])	viability at 24 h, 20 µM (in vitro)	anti-HIV-1 activity (HIV-1 p24 levels) (HIV-1LAI)	IC50 (P-gp [2]; [8])	IC50 (P-gp [2]; [9])	other results
CC(C)CN(C[C@@H](OC(=O)CCCSSCCCC(=O)OC[C@@H]1C=C[C@H](n2cnc3c(NC4CC4)nc(N)nc32)C1)[C@H](Cc1ccccc1)NC(=O)O[C@H]1CO[C@H]2OCC[C@H]21)S(=O)(=O)c1ccc(N)cc1 [Aba-S2-DRV8, abacavir-S2-darunavir-8]	510 ± 80 nM	500 ± 40 nM	70%	less potent than the 1:1 mixture of Aba and DRV	90 ± 20 nM	80 ± 20 nM	IC50 (P-gp [2]; calcein-AM and NBD-Aba substrates, read-out: IC50 values, inhibition of P-gp efflux): 80 to 90 nM; stability of prodrug beyond 3 days [3]: decomposition observed after day 4; prodrug intact ([3]; after 3 days): greater than 95%
Cc1c(OC(=O)CCCSSCCCC(=O)OC[C@@H]2C=C[C@H](n3cnc4c(NC5CC5)nc(N)nc43)C2)cccc1C(=O)N[C@@H](CSc1ccccc1)[C@H](O)CN1C[C@H]2CCCC[C@H]2C[C@H]1C(=O)NC(C)(C)C [Aba-S2-NFV1, abacavir-S2-nelfinavir-1]	650 ± 90 nM	770 ± 50 nM	> 95%	superior potency as compared to Aba-S2-DRV8	410 ± 60 nM	590 ± 70 nM	fold increase in inhibition of P-gp as compared to the monomeric PI (NFV or DRV) (P-gp [1]; ratio of IC50 values of Table 1, 12D7-MDR and hCMEC/D3 cells, calcein-AM and NBD-Aba): 3- to 12 fold; prodrug intact ([3]; after 1 week): greater than 95%; fold faster release of NFV from Aba-S2-NFV1 than DRV release from Aba-S2-DRV8 [4]: 18 fold
Cc1c(O)cccc1C(=O)N[C@@H](CSc1ccccc1)[C@H](O)CN1C[C@H]2CCCC[C@H]2C[C@H]1C(=O)NC(C)(C)C [NFV, nelfinavir]							increase of brain accumulation in P-gp null mice as compared to wild-type mice (P-gp [5]; mouse, not told): 36 fold
Nc1nc(NC2CC2)c2ncn([C@H]3C=C[C@@H](CO)C3)c2n1 [Aba, abacavir]							increase of brain accumulation in P-gp null mice as compared to wild-type mice (P-gp [5]; P-gp null mice vs wild-type mice): 20 fold
CC(C)CN(C[C@@H](O)[C@H](Cc1ccccc1)NC(=O)O[C@H]1CO[C@H]2OCC[C@H]21)S(=O)(=O)c1ccc(N)cc1 [DRV, darunavir, reference compound]	60000 ± 9400 nM	33200 ± 6500 nM			15400 ± 3200 nM	6600 ± 1900 nM	
